Literature values in patent US20200179295A1, “MRI-DETECTABLE MULTILAYER MICROCAPSULES FOR ULTRASOUND-TRIGGERED DELIVERY OF PHARMACOLOGICALLY ACTIVE AGENTS” (THE UAB RESEARCH FOUNDATION, priority 2018, published 2020).

Settings: 1.5 T; Rohrer et al. 2005

## CC(O)CN1CCN(CC(=O)[O-])CCN(CC(=O)[O-])CCN(CC(=O)[O-])CC1.[Gd+3] (stereo not shown) [ProHance, gadoteridol]
  r1: 4.1 mM⁻¹ s⁻¹
